Results taken from patent EP4678638A1, “NEW E3 UBIQUITIN LIGASE LIGAND, PROTEIN DEGRADATION AGENT AND USE THEREOF” (priority 2023, dated 2024).

Tests used:
[1] = target: T1, human Cereblon WT GST-tagged protein (Homo sapiens, UniProt Q96SW2); experiment: CRBN binding, HTRF (CEREBLON BINDING kit); details: Table II-2, CRBN binding screening, HTRF; for inhibition at 0.5 µM: read-out: Inhibition rate (%) at 0.5µM; for inhibition at 2 µM: read-out: Inhibition rate (%) at 2 µM
T1 construct: purchased CISBIO 64BDCRBNPEH
T1 sequence (Q96SW2 whole entry): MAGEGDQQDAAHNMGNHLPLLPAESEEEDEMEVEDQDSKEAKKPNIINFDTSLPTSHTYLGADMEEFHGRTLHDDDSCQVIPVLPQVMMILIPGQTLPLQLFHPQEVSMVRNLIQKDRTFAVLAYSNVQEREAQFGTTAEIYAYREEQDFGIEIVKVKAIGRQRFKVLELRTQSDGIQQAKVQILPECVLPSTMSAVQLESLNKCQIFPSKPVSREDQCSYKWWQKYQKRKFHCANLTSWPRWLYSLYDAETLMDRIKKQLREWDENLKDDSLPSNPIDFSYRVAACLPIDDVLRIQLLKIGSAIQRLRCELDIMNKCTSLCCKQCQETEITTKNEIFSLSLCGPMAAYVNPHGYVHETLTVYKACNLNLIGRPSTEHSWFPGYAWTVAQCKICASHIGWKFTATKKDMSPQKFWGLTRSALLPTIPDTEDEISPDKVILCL
Outline: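 Competitive HTRF: GST-tagged human WT Cereblon mixed with compound, Thalidomide-Re tracer and GST Eu antibody, incubated 3 h at room temperature. Signals read at 620 and 665 nm.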

[2] = target: T2, FAK (Homo sapiens, UniProt Q05397); experiment: Western blot degradation of FAK; assay type: cell-based; details: Table D7
T2 construct: evaluate the effects of the compounds of the present disclosure on the expression of target proteins in cells; endogenous in cells
T2 sequence (Q05397 whole entry, species assumed): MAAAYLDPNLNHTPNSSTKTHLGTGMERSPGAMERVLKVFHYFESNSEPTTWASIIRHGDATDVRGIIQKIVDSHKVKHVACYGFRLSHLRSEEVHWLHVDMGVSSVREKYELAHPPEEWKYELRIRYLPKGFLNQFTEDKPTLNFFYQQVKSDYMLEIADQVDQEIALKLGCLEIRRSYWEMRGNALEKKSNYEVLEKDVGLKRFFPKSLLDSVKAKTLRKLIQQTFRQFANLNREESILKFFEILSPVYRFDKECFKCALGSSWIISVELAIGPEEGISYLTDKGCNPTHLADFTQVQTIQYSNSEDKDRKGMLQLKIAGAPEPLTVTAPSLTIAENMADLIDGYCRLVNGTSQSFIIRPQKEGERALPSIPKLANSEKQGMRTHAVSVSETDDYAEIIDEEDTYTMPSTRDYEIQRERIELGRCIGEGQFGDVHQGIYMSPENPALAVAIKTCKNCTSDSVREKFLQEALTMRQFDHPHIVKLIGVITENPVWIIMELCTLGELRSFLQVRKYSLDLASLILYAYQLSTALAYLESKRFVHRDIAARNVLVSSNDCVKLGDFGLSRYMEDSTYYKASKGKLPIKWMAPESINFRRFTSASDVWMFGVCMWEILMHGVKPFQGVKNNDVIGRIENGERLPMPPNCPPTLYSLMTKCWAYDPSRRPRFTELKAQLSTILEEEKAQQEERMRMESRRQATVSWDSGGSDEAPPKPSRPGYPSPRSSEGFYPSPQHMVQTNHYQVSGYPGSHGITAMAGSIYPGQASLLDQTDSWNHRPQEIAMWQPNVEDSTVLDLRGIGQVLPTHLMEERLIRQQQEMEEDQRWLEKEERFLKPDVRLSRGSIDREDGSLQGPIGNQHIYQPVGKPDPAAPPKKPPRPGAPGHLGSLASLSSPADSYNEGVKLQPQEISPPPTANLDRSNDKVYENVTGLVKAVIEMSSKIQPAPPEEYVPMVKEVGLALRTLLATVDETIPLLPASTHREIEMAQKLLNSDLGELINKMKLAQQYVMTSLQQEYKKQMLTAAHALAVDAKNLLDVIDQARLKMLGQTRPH
Protocol: Conventional Western blot assay was performed to evaluate the effects of the compounds of the present disclosure on the expression of target proteins in cells.
(1) Cell Seeding and Protein Harvesting: The selected cells were processed according to the cell seeding procedure and protein harvesting procedure in Table III-2. Table III-2 Cell Seeding and Protein Harvesting Procedures
(2) To the collected supernatant, 5X SDS sample loading buffer was added, followed by denaturation at 95°C for 5 minutes. The denatured samples were then separated by SDS-PAGE electrophoresis on a polyacrylamide gel. Proteins were transferred to a nitrocellulose membrane (0.45 µm NC membrane), blocked with blocking buffer at room temperature for 1 hour, and subjected to antibody incubation and development procedures according to the antibody manufacturer's instructions (Cell Signaling Technology).
Half-Maximal Degradation Concentration value (the drug concentration required for degrading proteins by 50%, abbreviated as DC50) reads method: comparing the grayscale values of Western blot bands from drug-treated samples with those from blank DMSO-treated controls, and identifying the drug concentration range at which the grayscale value is half that of the DMSO-treated control bands.
DC50 values can be calculated using ImageJ software to measure grayscale values of Western blot bands from drug-treated samples. The concentration-response curve is fitted to estimate the drug concentration corresponding to half the grayscale value.
Target protein remaining (%) refers to the percentage of target protein remaining in hPBMC cells after treatment with protein degrader compounds.
Calculation method for target protein remaining (%): Use ImageJ software to measure grayscale values of Western blot bands from drug (protein degrader)-treated samples. The grayscale value of drug-treated bands is divided by that of internal control protein bands, and the resulting quotient is normalized to obtain the relative percentage of remaining target protein after protein degrader treatment.
Target protein degradation rate (%) = 100% - target protein remaining (%).

[3] = tested on: CCRF-CEM; experiment: CCK-8 proliferation, CCRF-CEM; assay type: cell-based, Human; details: Homo sapiens, CCRF-CEM; CCK-8; 96 hours; read-out: Inhibitory activity (IC50) on tumor cell proliferation, CCRF-CEM
Outline: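 Tumor cells were cultured at 37°C with 5% CO2, seeded, and after 24h treated with compounds at 10 concentrations starting at 10µM (5-fold serial dilutions).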

[4] = tested on: Jurkat; experiment: CCK-8 proliferation, Jurkat; assay type: cell-based, Human; details: Homo sapiens, Jurkat; CCK-8; 96 hours; read-out: Inhibitory activity (IC50) on tumor cell proliferation, Jurkat
Protocol: The tumor cells used herein were cultured in a cell culture medium listed in table A1 at 37°C in an incubator with 5% CO2. Prior to experimentation, all cell lines used were correctly identified by STR profiling, and tested negative for mycoplasma contamination using a mycoplasma detection kit through routine screenings. Table A1. Tumor cells and cell culture medium used in the present disclosure
IC50 values of the compounds of the present disclosure (including the compounds in Table 1, and compounds of examples) were measured using the Meilun Cell Counting Kit-8 kit from Dalian Meilun Biotech Co., Ltd. Assay details are as follows: tumor cells were seeded in a 96-well plate at a density listed in Table A2. After 24h, 100 µL of the inoculated cells were treated with 0.5µL of the compounds of the present disclosure (including the compounds in Tables 1 and 2, and compounds of examples) at 10 different successively decreasing concentrations (starting at the highest concentration of 10µM; 5-fold serial dilutions). After the cells were treated with the compounds of the present disclosure for a period of time, the cell viability detection reagent was added to the culture medium for cell viability assessment according to the instructions provided with the CCK-8 kit. […] The growth inhibition of the compounds of the present disclosure on cells was plotted by Prism Graphpad software, and the IC50 values of the compounds of the present disclosure were calculated therefrom. […] Seeding protocol and treatment time for tumor cells

| Structure (SMILES) | inhibition at 0.5 µM [1] | inhibition at 2 µM [1] | Degradation of substrate protein FAK (substrate protein remaining %) [2] | IC50 [3] | IC50 [4] |
| --- | --- | --- | --- | --- | --- |
| COc1cc(C(=O)NC2CCN(Cc3ccc(C4CCC(=O)NC4=O)cc3)CC2)c(F)cc1Nc1ncc(C(F)(F)F)c(Oc2cccc3c2C(=O)N(C)C3)n1 (stereo not shown) [GT-04034, N-(1-(4-(2,6-dioxopiperidin-3-yl)benzyl)piperidin-4-yl)-2-fluoro-5-methoxy-4-((4-((2-methyl-3-oxoisoindolin-4-yl)oxy)-5-(trifluoromethyl)pyrimidin-2-yl)amino)benzamide] | 53 to 60% | 80 to 100% | A (A is defined as 0% ≤ substrate protein remaining % ≤ 80%) | – | – |
| CNC(=O)c1ccccc1Nc1cc(Nc2ccc(N3CCC(N4CCN(Cc5ccc(C6CCC(=O)NC6=O)cc5)CC4)CC3)cc2OC)ncc1C(F)(F)F (stereo not shown) [GT-03599, 2-((2-((4-(4-(4-(4-(2,6-dioxopiperidin-3-yl)benzyl)piperazin-1-yl)piperidin-1-yl)-2-methoxyphenyl)amino)-5-(trifluoromethyl)pyridin-4-yl)amino)-N-methylbenzamide] | – | – | A (A is defined as 0% ≤ substrate protein remaining % ≤ 80%) | 100 to 500 nM | – |
| CNC(=O)c1ccccc1Nc1cc(Nc2cc(C)c(N3CCC(N(C)Cc4ccc(C5CCC(=O)NC5=O)c(F)c4)CC3)cc2OC(C)C)ncc1C(F)(F)F (stereo not shown) [GT-04095, 2-((2-((4-(4-((4-(2,6-dioxopiperidin-3-yl)-3-fluorobenzyl)(methyl)amino)piperidin-1-yl)-2-isopropoxy-5-methylphenyl)amino)-5-(trifluoromethyl)pyridin-4-yl)amino)-N-methylbenzamide] | 20 to 30% | 60 to 80% | A (A is defined as 0% ≤ substrate protein remaining % ≤ 80%) | – | – |
| CNC(=O)c1ccccc1Nc1cc(Nc2cc(C)c(N3CCN(Cc4ccc(C5CCC(=O)NC5=O)cc4)CC3)cc2OC(C)C)ncc1C(F)(F)F (stereo not shown) [GT-03946, 2-((2-((4-(4-(4-(2,6-dioxopiperidin-3-yl)benzyl)piperazin-1-yl)-2-isopropoxy-5-methylphenyl)amino)-5-(trifluoromethyl)pyridin-4-yl)amino)-N-methylbenzamide] | 30 to 40% | 53 to 60% | A (A is defined as 0% ≤ substrate protein remaining % ≤ 80%) | – | – |
| COc1cc(C(=O)NC2CCN(Cc3ccc(C4CCC(=O)NC4=O)c(F)c3)CC2)c(F)cc1Nc1ncc(C(F)(F)F)c(Oc2cccc3c2C(=O)N(C)C3)n1 (stereo not shown) [GT-04035, N-(1-(4-(2,6-dioxopiperidin-3-yl)-3-fluorobenzyl)piperidin-4-yl)-2-fluoro-5-methoxy-4-((4-((2-methyl-3-oxoisoindolin-4-yl)oxy)-5-(trifluoromethyl)pyrimidin-2-yl)amino)benzamide] | 40 to 53% | 80 to 100% | A (A is defined as 0% ≤ substrate protein remaining % ≤ 80%) | – | 50 to 100 nM |
| CN(c1nccnc1CNc1nc(Nc2ccc(N3CCN(Cc4cncc(C5CCC(=O)NC5=O)c4)CC3)cc2)ncc1C(F)(F)F)S(C)(=O)=O (stereo not shown) [GT-07510, N-(3-(((2-((4-(4-((5-(2,6-dioxopiperidin-3-yl)pyridin-3-yl)methyl)piperazin-1-yl)phenyl)amino)-5-(trifluoromethyl)pyrimidin-4-yl)amino)methyl)pyrazin-2-yl)-N-methylmethanesulfonamide] | – | – | A (A is defined as 0% ≤ substrate protein remaining % ≤ 80%) | – | – |
| CNC(=O)c1ccccc1Nc1cc(Nc2cc(C)c(C3CCN(Cc4cnc(N5CCC(=O)NC5=O)cn4)CC3)cc2OC(C)C)ncc1C(F)(F)F [GT-07680, 2-((2-((4-(1-((5-(2,4-dioxotetrahydropyrimidin-1(2H)-yl)pyrazin-2-yl)methyl)piperidin-4-yl)-2-isopropoxy-5-methylphenyl)amino)-5-(trifluoromethyl)pyridin-4-yl)amino)-N-methylbenzamide] | – | – | A (A is defined as 0% ≤ substrate protein remaining % ≤ 80%) | – | – |
| CNC(=O)c1ccccc1Nc1cc(Nc2ccc(N3CCC(N(C)Cc4ccnc(N5CCC(=O)NC5=O)c4)CC3)cc2OC)ncc1C(F)(F)F [GT-07654, 2-((2-((4-(4-(((2-(2,4-dioxotetrahydropyrimidin-1(2H)-yl)pyridin-4-yl)methyl)(methyl)amino)piperidin-1-yl)-2-methoxyphenyl)amino)-5-(trifluoromethyl)pyridin-4-yl)amino)-N-methylbenzamide] | – | – | A (A is defined as 0% ≤ substrate protein remaining % ≤ 80%) | – | – |
| CS(=O)(=O)c1cccc(CNc2nc(Nc3ccc(N4CCN(Cc5ccc(C6CCC(=O)NC6=O)c(F)c5)CC4)cc3)ncc2C(F)(F)F)c1 (stereo not shown) [GT-03823, 3-(2-fluoro-4-((4-(4-((4-((3-(methylsulfonyl)benzyl)amino)-5-(trifluoromethyl)pyrimidin-2-yl)amino)phenyl)piperazin-1-yl)methyl)phenyl)piperidine-2,6-dione] | – | – | A (A is defined as 0% ≤ substrate protein remaining % ≤ 80%) | – | – |
| CNC(=O)c1ccccc1Nc1cc(Nc2cc(C)c(C3CCN(Cc4ccc(C5CCC(=O)NC5=O)c(F)c4)CC3)cc2OC(C)C)ncc1C(F)(F)F (stereo not shown) [GT-04085, 2-((2-((4-(1-(4-(2,6-dioxopiperidin-3-yl)-3-fluorobenzyl)piperidin-4-yl)-2-isopropoxy-5-methylphenyl)amino)-5-(trifluoromethyl)pyridin-4-yl)amino)-N-methylbenzamide] | – | – | A (A is defined as 0% ≤ substrate protein remaining % ≤ 80%) | – | – |
| CS(=O)(=O)c1cccc(CNc2nc(Nc3ccc(N4CCN(Cc5ccc(C6CCC(=O)NC6=O)cc5)CC4)cc3)ncc2C(F)(F)F)c1 (stereo not shown) [GT-03822, 3-(4-((4-(4-((4-((3-(methylsulfonyl)benzyl)amino)-5-(trifluoromethyl)pyrimidin-2-yl)amino)phenyl)piperazin-1-yl)methyl)phenyl)piperidine-2,6-dione] | – | – | A (A is defined as 0% ≤ substrate protein remaining % ≤ 80%) | – | – |
| CNC(=O)c1ccccc1Nc1cc(Nc2ccc(N3CCC(N(C)Cc4ccc(N5CCC(=O)NC5=O)cc4)CC3)cc2OC)ncc1C(F)(F)F [GT-07649, 2-((2-((4-(4-((4-(2,4-dioxotetrahydropyrimidin-1(2H)-yl)benzyl)(methyl)amino)piperidin-1-yl)-2-methoxyphenyl)amino)-5-(trifluoromethyl)pyridin-4-yl)amino)-N-methylbenzamide] | – | – | A (A is defined as 0% ≤ substrate protein remaining % ≤ 80%) | – | – |
